This note sets out measurements from patent publication US8058243B2, “Method for treating a brain cancer with ifenprodil” (HSC Research and Development Limited Partnership, priority 2006, dated 2011).

The test relates to murine neural precursor cells (neurosphere cultures). Kind of test: HTS of LOPAC library against secondary neurosphere cultures, MTT proliferation assay at 3 μM, day 7 (z score, P value). In kind it is cell-based, mouse. A general note: Tetrazolium assays rely on reduction of a dye to a coloured formazan, in cell work by metabolically active cells.
Setting [1] is: LOPAC primary screen, neurosphere MTT proliferation, 3 μM, day 7.
The mark [2] stands for this setting: yes/no: significantly inhibited neurosphere proliferation (P<0.01) in the primary screen.
[3] abbreviates: yes = significantly inhibited neurosphere proliferation (P<0.01) in the primary screen.
[4] abbreviates: yes/no: significantly inhibited neurosphere proliferation in the primary screen.
Where [5] appears, read: primary LOPAC screen, 3 μM, MTT, neurosphere proliferation.
The mark [6] stands for this setting: LOPAC library screen, 3 μM, MTT, secondary neurosphere cultures, day 7.
The mark [7] stands for this setting: yes/no: significantly inhibited neurosphere proliferation in primary screen.
[8] abbreviates: yes/no: significantly inhibited neurosphere proliferation (P<0.01) in primary screen.
Where [9] appears, read: LOPAC library screen at 3 μM, secondary neurosphere cultures, MTT.
Setting [10] is: LOPAC library screen, 3 μM, MTT, neurosphere cultures.

Where a name gives a salt, the structure may show the parent alone. Read-outs that look alike come from different tables or passages of the source.

Consider `O=C(O)CCCc1ccc(N(CCCl)CCCl)cc1` [Chlorambucil], for which the “Z Score” value amounted to 0.08078. The molecule also came in with a Z score under setting [1] of 0.081. Moreover, under setting [2], the Activity result is given as “no”.
As for `Cl.N=c1c[n+](N2CCOCC2)[n-]o1` [3-Morpholinosydnonimine hydrochloride], where the note is “168 h, 3 µM”, the “Z Score” value is listed as −1.324 and the Z score is recorded as −1.324. In addition, the Activity entry under setting [3] was “no”.
`Cc1scc2c1N(C(=O)CN1CCN(C)CC1)c1ccccc1NC2=O` [Telenzepine dihydrochloride]: for the setting “168 h, 3 µM”, the “Z Score” value is 0.3813 and the Z score is recorded as 0.381. Under setting [4], the Activity result is on record as “no”.
For the molecule `CC(=O)N[C@@H](Cc1c[nH]c2ccccc12)C(=O)OCc1cc(C(F)(F)F)cc(C(F)(F)F)c1` [L-732,138], the “Z Score” value is listed as 0.5027. This molecule also gave a Z score under setting [5] of 0.503. Further, the Activity entry under setting [4] is “no”.
As for S-(−)-Lisuride, the “Z Score” value is −0.1473 and the Z score was −0.147.
As for `Cc1[nH]c2ccc(O)cc2c1CCN.O=C(O)/C=C\C(=O)O` [2-Methyl-5-hydroxytryptamine maleate], the “Z Score” value stood at 0.5718. Under setting [1], this molecule had a Z score of 0.572. Besides, the Activity entry under setting [3] is given as “no”.
Consider `N#CCCN.N#CCCN.O=C(O)/C=C/C(=O)O` [3-Aminopropionitrile fumarate], for which the “Z Score” value is reported as 1.234. Also, the Z score under setting [5] is given as 1.234. Further, under setting [4], the Activity entry is reported as “no”.
Turning to `OC[C@H]1O[C@@H](n2cnc3c(NC4CCCCC4)ncnc32)[C@H](O)[C@@H]1O` [N6-Cyclohexyladenosine], under setting [6], the “Z Score” value is recorded as −2.883. Besides, under setting [1], the Z score is −2.883. Under setting [2], the Activity result was “yes”.
For `NC(=O)c1ccccc1` [Benzamide], the Z score (168 h, 3 µM) was 0.550. Also, under setting [4], the Activity result was “no”.
On to `Cc1nc(N=Nc2cc(S(=O)(=O)[O-])c3cc([N+](=O)[O-])cc(S(=O)(=O)[O-])c3c2)c(COP(=O)([O-])[O-])c(C=O)c1O.[Na+].[Na+].[Na+].[Na+]` [PPNDS tetrasodium], for which the “Z Score” value was −2.067. Also, under setting [1], the Z score is given as −2.067. Moreover, the Activity result under setting [7] is given as “no”.
Take `Cl.Cl.Cl.Ic1ccc(N2CCN(Cc3c[nH]c4ncccc34)CC2)cc1` [L-750,667 trihydrochloride]: the “Z Score” value is listed as −1.184. Also, the Z score under setting [1] was −1.184. Under setting [2], the Activity entry is “no”.
`Cn1ccnc1` [1-Methylimidazole]: where the note is “168 h, 3 µM”, the “Z Score” value was −0.8469 and the Z score is reported as −0.847. For the same molecule, the Activity entry under setting [3] is “no”.
As for `COc1cc(CC(=O)O)ccc1O` [4-Hydroxy-3-methoxyphenylacetic acid], the “Z Score” value is given as −0.5673. The Z score under setting [1] is reported as −0.567. Further, under setting [8], the Activity entry was “no”.
Consider `CC(C)NC[C@@H](O)c1ccc(O)c(O)c1.O=C(O)C(O)C(O)C(=O)O` [S(+)-Isoproterenol (+)-bitartrate], for which the “Z Score” value is recorded as −0.2963.
With `Nc1ccc(N2C(=O)c3ccccc3C2=O)c(Cl)c1` [N-(4-Amino-2-chlorophenyl)phthalimide], the “Z Score” value under setting [9] is listed as −0.6021. The Z score under setting [5] is on record as −0.602. For the same molecule, the Activity result under setting [4] was “no”.
Regarding `CCCCCCN(CCCCCC)C(=O)Cc1c(-c2ccc(F)cc2)[nH]c2ccccc12` [N,N-Dihexyl-2-(4-fluorophenyl)indole-3-acetamide], where the note is “168 h, 3 µM”, the “Z Score” value is recorded as 1.916 and the Z score is on record as 1.916. Besides, the Activity result under setting [8] is reported as “no”.
Consider Tyrphostin AG 808, for which the “Z Score” value under setting [6] is −1.315. The Z score under setting [5] is recorded as −1.315. Under setting [4], the Activity entry is given as “no”.
Consider `CCCCCCCC/C=C\CCCCCCCC(=O)NCCc1ccc(O)c(O)c1` [N-Oleoyldopamine], for which, where the note is “168 h, 3 µM”, the “Z Score” value was found to be 0.4633 and the Z score is given as 0.463. For the same molecule, under setting [7], the Activity result was “no”.
For `COC(=O)c1c(-c2cc(OC)c(OC)c(OC)c2)c2ccnc(OCc3ncccn3)c2c(=O)n1Cc1ccnc(C)c1` [T-0156], the “Z Score” value is recorded as 0.07709. This molecule came in with a Z score under setting [5] of 0.077. The Activity result under setting [4] is recorded as “no”.
Regarding `C=C(C)[C@H]1CN[C@H](C(=O)O)[C@H]1CC(=O)O` [Kainic acid], the “Z Score” value is reported as −0.3169. Besides, the Z score under setting [1] is on record as −0.317. In addition, the Activity result under setting [8] was “no”.
Turning to `Oc1ccc2c3c1O[C@H]1c4oc5ccccc5c4C[C@@]4(O)[C@@H](C2)N(CC2CC2)CC[C@]314` [Naltriben methanesulfonate], the “Z Score” value is reported as −0.3606. Under setting [1], the Z score is recorded as −0.361. The Activity entry under setting [7] is reported as “no”.
For the molecule `CC(C)C[C@H]1C(=O)N2CCC[C@H]2[C@]2(O)O[C@](NC(=O)[C@@H]3C=C4c5cccc6[nH]c(Br)c(c56)C[C@H]4N(C)C3)(C(C)C)C(=O)N12.CS(=O)(=O)O` [(+)-Bromocriptine methanesulfonate], the “Z Score” value is reported as 0.02792. This molecule also gave a Z score under setting [5] of 0.028. For the same molecule, the Activity result under setting [4] is “no”.
As for `O=C(O)CCCCCCC1C(=O)NC(=O)N1CCC(O)C1CCCCC1` (stereo not shown) [BW 245C], the “Z Score” value amounted to 1.036. For the same molecule, under setting [1], the Z score came out at 1.036. In addition, the Activity result under setting [7] was “no”.
For the molecule `NC1C=CC=C(C(=O)O)C1` (racemic) [Gabaculine hydrochloride], the “Z Score” value is reported as −2.256. Also, the Z score under setting [5] is given as −2.256. For the same molecule, under setting [4], the Activity entry is listed as “no”.
In the case of `CC(C)Cc1ccc(C(C)C(=O)O)cc1` (stereo not shown) [(B1)-Ibuprofen], the “Z Score” value is recorded as −0.2623.
Turning to `Nc1nc(N)c2nc(-c3ccccc3)c(N)nc2n1` [Triamterene], under setting [6], the “Z Score” value is reported as −4.642. For the same molecule, under setting [1], the Z score was −4.642. Besides, the Activity entry under setting [3] is recorded as “yes”.
As for `COc1ccc2[nH]c3c(c2c1)CCNC3`, the “Z Score” value is given as −2.661.
In the case of `COc1cc2ncnc(Nc3cccc(Cl)c3)c2cc1OC` [Tyrphostin AG 1478], the “Z Score” value (LOPAC library screen at 3 μM, MTT, secondary neurosphere cultures, screened in singlets) turned out to be 1.87. Under setting [1], the Z score turned out to be 1.870. The Activity result under setting [2] was “no”.
In the case of `Br.COc1ccc(-c2ccc(=N)n(CCCC(=O)O)n2)cc1` [SR-95531], the Activity result is “no”, the “Z Score” value is listed as −0.9574 and the Z score is −0.957.
As for `C=CCN1C[C@H](C)N([C@H](c2ccc(C(=O)N(CC)CC)cc2)c2cccc(OC)c2)C[C@H]1C` [SNC80], the “Z Score” value is given as −0.4575. The Z score under setting [1] is given as −0.457. The Activity result under setting [7] was “no”.
Take `COc1ccc(NC(=O)c2ccc(-c3ccc(-c4noc(C)n4)cc3C)cc2)cc1N1CCN(C)CC1` [GR 127935 hydrochloride]: the “Z Score” value under setting [9] is reported as −1.081. Further, the Z score under setting [1] was −1.081. Under setting [2], the Activity entry was “no”.
As to `CC1(C)NC(=O)N(c2ccc([N+](=O)[O-])c(C(F)(F)F)c2)C1=O` [Nilutamide], the “Z Score” value under setting [10] is on record as 0.1188. Under setting [1], this molecule yielded a Z score of 0.119. Besides, the Activity entry under setting [3] is given as “no”.
For the molecule `NC1CCN(O)C1=O` (stereo not shown) [(B1)-HA-966], the “Z Score” value is listed as 1.157.
Regarding `CC(=O)c1c(O)c(C)c(O)c(Cc2c(O)c3c(c(C(=O)/C=C/c4ccccc4)c2O)OC(C)(C)C=C3)c1O` [Rottlerin], the “Z Score” value was 0.3042. This molecule gave a Z score under setting [1] of 0.304. In addition, under setting [7], the Activity entry is “no”.
Take `O=C(NCCNCC(O)COc1ccc(O)cc1)N1CCOCC1` (stereo not shown) [Xamoterol hemifumarate]: under “168 h, 3 µM”, the “Z Score” value is given as −0.1243 and the Z score is on record as −0.124. The Activity entry under setting [4] is on record as “no”.
Turning to `Cn1c(=O)[nH]c2ncn(C)c2c1=O` [1,7-Dimethylxanthine], for the setting “168 h, 3 µM”, the “Z Score” value is recorded as −0.6623 and the Z score is recorded as −0.662. Also, the Activity result under setting [8] is listed as “no”.
As for `Cl.Cl.NCCNS(=O)(=O)c1cccc2cnccc12` [H-9 dihydrochloride], the “Z Score” value was −0.1899. The Z score under setting [5] is recorded as −0.190. In addition, the Activity entry under setting [4] is “no”.
In the case of LY-367,265, the “Z Score” value is reported as −0.407. The Z score under setting [1] is recorded as −0.407. In addition, under setting [8], the Activity entry is “no”.
Regarding `CCC(NC(C)C)C(O)c1ccc(O)c(O)c1.CS(=O)(=O)O` (stereo not shown) [Isotharine mesylate], the “Z Score” value is −0.6392. Also, the Z score under setting [1] was −0.639. Moreover, the Activity entry under setting [8] is recorded as “no”.
As for `COc1cc(OC)cc(C(CNc2ncnc3c2ncn3[C@@H]2O[C@H](CO)[C@@H](O)[C@H]2O)c2ccccc2C)c1` (stereo partly shown) [DPMA], the “Z Score” value was determined as 0.03628. This molecule registered a Z score (LOPAC screen, neurosphere MTT proliferation, 3 μM, day 7) of 0.036. Also, the Activity entry under setting [8] was “no”.
For `O=C(O)c1ccccc1Nc1cccc(OCc2ccc3ccccc3n2)c1` [SR 2640], the “Z Score” value is −1.548. Under setting [1], the Z score is −1.548. In addition, the Activity result under setting [7] is listed as “no”.
Take `Cl.NCC#Cc1ccccc1` [3-Phenylpropargylamine hydrochloride]: the “Z Score” value is given as −2.043. In addition, the Z score under setting [1] is −2.043. Moreover, under setting [7], the Activity result was “no”.
As for `NC1CCN(O)C1=O` (racemic) [(±)-HA-966], the Activity entry is reported as “no”. This molecule registered a Z score under setting [5] of 1.157.
Consider `CCCn1cnc2c1c(=O)n(CCCCC(C)=O)c(=O)n2C` [Propentofylline], for which the “Z Score” value under setting [10] was found to be 0.1563. The Z score under setting [1] amounted to 0.156. Besides, the Activity entry under setting [7] is given as “no”.
For the molecule `CNCCC=C1c2ccccc2CCc2ccccc21` [Nortriptyline hydrochloride], the “Z Score” value under setting [9] is −1.095. In addition, the Z score under setting [1] is −1.095. Moreover, the Activity entry under setting [3] is “no”.
